Values after ≈ are worked out from the molar mass of the structure shown. Values joined by “and” are separate entries in the source; they are usually repeats but may differ in a detail not shown here. Identical values can stand only once.
Columns and labels:
Malassezia pachydermatis = assay: MIC, mSAB broth microdilution (Example 1); type: cell-based
Excerpt: There is no recommended Clinical & Laboratory Standards Institute (CLSI) standard for M. pachydermatis. In the literature there are a number of papers which have developed Minimum Inhibitory Concentration (MIC) methodology for Malassezia species isolated from both humans and animals (ie both lipophilic and non-lipophilic species). In all papers, the methodology has been altered from the original CLSI protocols in order to overcome four main problem areas involved in testing this yeast. • 1) Finding a suitable growth medium for Malassezia, especially the lipophilic species. […] When testing the azole group of anti-fungal agents, there is also the well known trailing end point problem with MIC determination. Trailing occurs when the turbidity continually decreases as the drug concentration increases but the suspension fails to become optically clear (partial inhibition of growth over an extended range of antifungal concentrations). The following method was originally developed by Eichenberg et al. (2003) (mSAB broth microdilution method). The mSAB method was devised to follow as closely as possible the CLSI guidelines whilst still allowing for the distinct biochemical and growth requirements of M. pachydermatis. Sabouraud dextrose broth with 1% Tween 80 was chosen as the assay medium as it allowed for excellent growth of the organism. Higher inoculum concentrations (1-4×10^6 CFU/ml) and increased time of incubation (48 to 72 hours) were used to enable sufficient growth of the test strains.

Candida albicans [1] = assay: CLSI broth microdilution MIC (Example 4); type: cell-based
Method in brief: (§1)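 CLSI broth microdilution in RPMI 1640 with two-fold compound dilutions and inoculum about 2×10^3 cells/mL. Plates incubated 35° C for 24-48 hours; MICs determined in duplicate, with a third test when the duplicates differed.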

Cryptococcus neoformans [2] = assay: CLSI broth microdilution MIC (Example 4); type: cell-based
Method in brief: as §1

Candida albicans [3] = assay: CLSI broth microdilution MIC (Example 5); type: cell-based
Method in brief: (§2)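 Broth microdilution per CLSI in RPMI 1640 with twofold compound dilutions, inoculum about 2×10^3 cells/mL. Plates incubated at 35° C for 24-48 hours. MIC determined per isolate in duplicate, with a third repeat when the two values differed.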

Cryptococcus neoformans [4] = assay: CLSI broth microdilution MIC (Example 5); type: cell-based
Method in brief: as §2

Candida albicans [5] = assay: CLSI broth microdilution MIC (Example 6); type: cell-based
Method in brief: (§3)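 CLSI broth microdilution in RPMI 1640, compounds serially double-diluted, inoculum about 2×10^3 cells/mL. Incubation at 35° C for 24-48 hours. MICs determined per isolate in duplicate, with a third repeat if values differed.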

Cryptococcus neoformans [6] = assay: CLSI broth microdilution MIC (Example 6); type: cell-based
Method in brief: as §3

C. gattii = assay: CLSI broth microdilution MIC (Example 6); type: cell-based, Cryptococcus gattii
Method in brief: as §3

[7] = Example 6 isolates, summary in words

Cc1ccc(/C=N/Nc2cc(N/N=C/c3ccc(C)cc3)nc(N)n2)cc1 [NCL195]
MIC (Malassezia pachydermatis; Malassezia isolate M1-017): 1 µg/mL (≈ 2.78 µM)
MIC (Malassezia pachydermatis; Malassezia isolate M-018): 1 µg/mL (≈ 2.78 µM)
MIC (Malassezia pachydermatis; Malassezia isolate M-020): 1 µg/mL (≈ 2.78 µM)
MIC (Malassezia pachydermatis; Malassezia isolate M-036): 1 µg/mL (≈ 2.78 µM)
MIC (Malassezia pachydermatis; Malassezia isolate M-037): 1 µg/mL (≈ 2.78 µM)
MIC (Malassezia pachydermatis; Malassezia isolate M-038): 1 µg/mL (≈ 2.78 µM)
MIC (Malassezia pachydermatis; Malassezia isolate M-040): 0.5 µg/mL and 1 µg/mL
MIC (Malassezia pachydermatis; Malassezia isolate M-052): 1 µg/mL (≈ 2.78 µM)
MIC (Malassezia pachydermatis; Malassezia isolate M-055): 1 µg/mL (≈ 2.78 µM)
MIC (Malassezia pachydermatis; Malassezia isolate M-060): 1 µg/mL (≈ 2.78 µM)
MIC (Malassezia pachydermatis; Malassezia isolate M-066): 1 µg/mL (≈ 2.78 µM)
MIC (Malassezia pachydermatis; Malassezia isolate M-067): 0.5 µg/mL and 1 µg/mL
MIC (Malassezia pachydermatis; Malassezia isolate M-069): 1 µg/mL (≈ 2.78 µM)
activity against all 13 isolates of Malassezia pachydermatis (Malassezia pachydermatis; summary in words): highly active
MIC at 24-48 hours (Candida albicans [1]; Candida albicans ATCC 90028): 2 µg/mL (≈ 5.56 µM)
MIC at 24-48 hours (Candida albicans [1]; Candida albicans SA3): 2 µg/mL (≈ 5.56 µM)
antifungal activity against the two isolates of Candida albicans (Candida albicans [1]; summary in words): high antifungal activity
MIC at 24-48 hours (Cryptococcus neoformans [2]; Cryptococcus neoformans SA1): 2 µg/mL (≈ 5.56 µM)
MIC at 24-48 hours (Cryptococcus neoformans [2]; Cryptococcus neoformans SA2): 2 µg/mL (≈ 5.56 µM)
MIC (Candida albicans [3]; C. albicans SA3): 2 µg/mL (≈ 5.56 µM)
MIC (Candida albicans [3]; Candida albicans ATCC 90028): 2 µg/mL (≈ 5.56 µM)
MIC (Candida albicans [3]; clinical isolate C. albicans 12-93301752 Azole Resistant): 4 µg/mL (≈ 11.1 µM)
MIC (Candida albicans [3]; clinical isolate C. albicans 14-90045999 Azole Resistant): >16 µg/mL
MIC (Candida albicans [3]; clinical isolate C. albicans 15-45171061): 8 µg/mL (≈ 22.3 µM)
MIC (Candida albicans [3]; clinical isolate C. albicans 15-91329871): 8 µg/mL (≈ 22.3 µM)
MIC (Candida albicans [3]; clinical isolate C. albicans 16-24136919 Azole Resistant): 4 µg/mL (≈ 11.1 µM)
MIC (Candida albicans [3]; clinical isolate C. albicans 16-46177400): 4 µg/mL (≈ 11.1 µM)
MIC (Candida albicans [3]; clinical isolate C. albicans 16-90050810): 4 µg/mL (≈ 11.1 µM)
MIC (Candida albicans [3]; clinical isolate C. albicans 16-90054237): 4 µg/mL (≈ 11.1 µM)
MIC (Candida albicans [3]; clinical isolate C. albicans 18-144-00196): 4 µg/mL (≈ 11.1 µM)
MIC (Candida albicans [3]; clinical isolate C. albicans 18-148-08188 Azole Resistant): >16 µg/mL
activity against one or more isolates of Cryptococcus neoformans and Candida albicans (Candida albicans [3]; summary in words): highly active
MIC (Cryptococcus neoformans [4]; Cryptococcus neoformans SA1): 2 µg/mL (≈ 5.56 µM)
MIC (Cryptococcus neoformans [4]; Cryptococcus neoformans SA2): 2 µg/mL (≈ 5.56 µM)
MIC (Candida albicans [5]; C. albicans SA3): 2 µg/mL (≈ 5.56 µM)
MIC (Candida albicans [5]; Candida albicans ATCC 90028): 2 µg/mL (≈ 5.56 µM)
MIC (Cryptococcus neoformans [6]; Cryptococcus neoformans SA1): 2 µg/mL (≈ 5.56 µM)
MIC (Cryptococcus neoformans [6]; Cryptococcus neoformans SA2): 2 µg/mL (≈ 5.56 µM)
activity against all isolates (Cryptococcus neoformans [6]; [7]): active
relative potency among tested compounds (Cryptococcus neoformans [6]; [7]): most potent activity
MIC (Cryptococcus neoformans [6]; human clinical isolate C. neoformans serotype A/D hybrid): 2 µg/mL (≈ 5.56 µM)
MIC (Cryptococcus neoformans [6]; human clinical isolate C. neoformans var grubii 16-90050434): 2 µg/mL (≈ 5.56 µM)
MIC (Cryptococcus neoformans [6]; human clinical isolate C. neoformans var grubii 17-90028233): 2 µg/mL (≈ 5.56 µM)
MIC (Cryptococcus neoformans [6]; human clinical isolate C. neoformans var grubii 17-93996464): 2 µg/mL (≈ 5.56 µM)
MIC (Cryptococcus neoformans [6]; human clinical isolate C. neoformans var grubii 17-93996964): 2 µg/mL (≈ 5.56 µM)
MIC (C. gattii; human clinical isolate C. gatti 17-90232099): 2 µg/mL (≈ 5.56 µM)
MIC (C. gattii; human clinical isolate C. gattii 16-90050373): 2 µg/mL (≈ 5.56 µM)
MIC (C. gattii; human clinical isolate C. gattii 17-90028211): 2 µg/mL (≈ 5.56 µM)
MIC (C. gattii; human clinical isolate C. gattii 17-90028217): 2 µg/mL (≈ 5.56 µM)
MIC (C. gattii; human clinical isolate C. gattii 17-90028242): 2 µg/mL (≈ 5.56 µM)
